Series [1] concerns VGAT-ires-Cre mice, VTA/SN^VGAT neurons. Briefly: Locomotor activity. The class given is in vivo. Particulars: mice expressing both KORD and hM3Dq in VTA/SN^VGAT neurons; 10.0 mg/kg; different testing sessions.
Series [2] deals with CNS molecular targets. Briefly: NIMH Psychoactive Drug Screening Program profiling. Particulars: NIMH PDSP; except low KOR binding affinity.
For series [3], the system named is VTA/SN neurons. Kind of series: Miniature IPSC recording in VTA/SN neurons. The class given is cell-based. Particulars: naive mice; 100 nM.
Series [4] deals with C57BL/6J mice. Particulars: mouse, in vivo.
The test system of series [5] is muscarinic receptor- based DREADDs (Gq, Gi and Gs DREADDs). Briefly: Activity at muscarinic receptor-based DREADDs. The class given is cell-based.
The test system of series [6] is mice. Particulars: mouse, in vivo.
In series [7] the target is KORD (D138N hKOR) (Homo sapiens, UniProt P41145, D138N). Kind of series: cell-based.
KORD (D138N hKOR), sequence (P41145 whole entry D138N): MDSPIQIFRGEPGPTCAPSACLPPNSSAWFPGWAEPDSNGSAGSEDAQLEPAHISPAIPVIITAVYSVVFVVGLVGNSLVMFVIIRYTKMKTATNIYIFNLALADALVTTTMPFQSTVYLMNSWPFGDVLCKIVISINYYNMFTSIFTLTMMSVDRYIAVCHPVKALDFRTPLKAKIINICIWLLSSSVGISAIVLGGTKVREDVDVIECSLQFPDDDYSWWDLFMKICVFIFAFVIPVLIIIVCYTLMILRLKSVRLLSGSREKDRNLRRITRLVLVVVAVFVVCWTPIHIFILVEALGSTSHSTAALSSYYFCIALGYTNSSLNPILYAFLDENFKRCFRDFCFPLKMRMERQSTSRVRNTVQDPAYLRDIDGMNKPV
In series [8] the test system is mice. Particulars: mouse, in vivo. The source holds these as a separate data set.
In series [9] the test system is SIM1-Cre mice, PVH^SIM1 neurons. Briefly: Feeding study in SIM1-cre mice. The class given is in vivo. Particulars: wild type control mice injected with cre-dependent KORD virus; 10 mg/kg s.c.
For series [10], the target named is E297A mutant (Homo sapiens, UniProt P41145, E297A). Kind of series: Affinity and agonist potency at E297A KOR mutant. Particulars: E297A mutant alone. The class given is cell-based.
E297A mutant, sequence (P41145 whole entry E297A): as the sequence (P41145 whole entry D138N) above, with N138D, E297A counted along it
Series [11] deals with KOR (Homo sapiens, UniProt P41145). Kind of series: cell-based.
KOR, sequence (P41145 whole entry): as the sequence (P41145 whole entry D138N) above, with N138D counted along it

By Emax is commonly meant the greatest response seen or fitted, relative to the assay's reference. Regarding `COC(=O)[C@@H]1C[C@H](O)C(=O)[C@H]2[C@@]1(C)CC[C@H]1C(=O)O[C@H](c3ccoc3)C[C@]21C` [Salvinorin B, salvinorin B], the “locomotor activity vs vehicle” value in series [1] was “enhanced locomotor activity”. For the same compound, the “activity against a large number of CNS molecular targets” value in series [2] is “failed to show any activity”. Further, in series [3], the “mIPSCs (frequency and amplitude)” value is on record as “no effect”. In addition, the “brain stimulation reward thresholds (ICSS)” value in series [4] is “failed to significantly elevate thresholds”. Also, in series [5], the “activity at muscarinic receptor-based DREADDs” value is “inactive”. In addition, in series [6], the “rotarod test effect (impairment of motor performance)” value is reported as “did not alter performance relative to controls”. In [7], the maximal effect (Emax) was 94% and the “Emax (%)” value is 100%. The “hot plate test effect (analgesia)” value in [8] is “did not alter performance relative to controls”. Moreover, the feeding effect result in series [9] was “no feeding effects”. The “effect of E297A mutation on agonist potency” value in series [10] is recorded as “no effect on SALB agonist potency”. Further, in series [11], the maximal effect (Emax) was found to be 80% and the “Emax (%)” value came out at 100%.

The values are drawn from article PMC4441592 (Neuron, 2015).
